Test system: P12-Ichikawa
Experiment: cell viability relative to DMSO control; higher = less cytotoxic
Conditions: 48 h
Procedure, shortened: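 Viability is a per-plate percentage relative to DMSO wells, with cell-free wells as background. CellTiter-Glo One luminescence was read after 48 h at 37°C on 1536-well plates (5 μl) of NOMO1 or SEM (500 cells/well) or P12-Ichikawa (1000 cells/well) leukemia cells. The cells had been adapted for at least four passages in each medium and pin-dosed with library compounds in DMSO from 47 μM to 0.79 nM in 11 threefold steps.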

[1] = HPLM + 10% dialyzed FBS, 0.000781 µM
[2] = HPLM + 10% dialyzed FBS, 0.00234 µM
[3] = HPLM + 10% dialyzed FBS, 0.00702 µM
[4] = HPLM + 10% dialyzed FBS, 0.0211 µM
[5] = HPLM + 10% dialyzed FBS, 0.0632 µM
[6] = HPLM + 10% dialyzed FBS, 0.19 µM
[7] = HPLM + 10% dialyzed FBS, 0.569 µM
[8] = HPLM + 10% dialyzed FBS, 1.71 µM
[9] = HPLM + 10% dialyzed FBS, 5.12 µM
[10] = HPLM + 10% dialyzed FBS, 15.4 µM
[11] = HPLM + 10% dialyzed FBS, 46.1 µM
[12] = RPMI 5 mM glucose + 10% FBS, 0.000781 µM
[13] = RPMI 5 mM glucose + 10% FBS, 0.00234 µM
[14] = RPMI 5 mM glucose + 10% FBS, 0.00702 µM
[15] = RPMI 5 mM glucose + 10% FBS, 0.0211 µM
[16] = RPMI 5 mM glucose + 10% FBS, 0.0632 µM
[17] = RPMI 5 mM glucose + 10% FBS, 0.19 µM
[18] = RPMI 5 mM glucose + 10% FBS, 0.569 µM
[19] = RPMI 5 mM glucose + 10% FBS, 1.71 µM
[20] = RPMI 5 mM glucose + 10% FBS, 5.12 µM
[21] = RPMI 5 mM glucose + 10% FBS, 15.4 µM
[22] = RPMI 5 mM glucose + 10% FBS, 46.1 µM
[23] = RPMI 5 mM glucose + 10% dialyzed FBS, 0.000781 µM
[24] = RPMI 5 mM glucose + 10% dialyzed FBS, 0.00234 µM
[25] = RPMI 5 mM glucose + 10% dialyzed FBS, 0.00702 µM
[26] = RPMI 5 mM glucose + 10% dialyzed FBS, 0.0211 µM
[27] = RPMI 5 mM glucose + 10% dialyzed FBS, 0.0632 µM
[28] = RPMI 5 mM glucose + 10% dialyzed FBS, 0.19 µM
[29] = RPMI 5 mM glucose + 10% dialyzed FBS, 0.569 µM
[30] = RPMI 5 mM glucose + 10% dialyzed FBS, 1.71 µM
[31] = RPMI 5 mM glucose + 10% dialyzed FBS, 5.12 µM
[32] = RPMI 5 mM glucose + 10% dialyzed FBS, 15.4 µM
[33] = RPMI 5 mM glucose + 10% dialyzed FBS, 46.1 µM

C[N+](C)([O-])CCNc1ccc(NCC[N+](C)(C)[O-])c2c1C(=O)c1c(O)ccc(O)c1C2=O
cell viability [1]: 99.5% | cell viability [2]: 98.6% | cell viability [3]: 97.6% | cell viability [4]: 103% | cell viability [5]: 100% | cell viability [6]: 90.1% | cell viability [7]: 83.2% | cell viability [8]: 63.4% | cell viability [9]: 21.8% | cell viability [10]: 28.9% | cell viability [11]: 15.2% | cell viability [12]: 101% | cell viability [13]: 101% | cell viability [14]: 92.3% | cell viability [15]: 102% | cell viability [16]: 82.7% | cell viability [17]: 72.3% | cell viability [18]: 62.9% | cell viability [19]: 42.8% | cell viability [20]: 7.99% | cell viability [21]: 13.9% | cell viability [22]: 7.05% | cell viability [23]: 84.3% | cell viability [24]: 80.9% | cell viability [25]: 95.8% | cell viability [26]: 96% | cell viability [27]: 83.7% | cell viability [28]: 79.3% | cell viability [29]: 76.2% | cell viability [30]: 44.9% | cell viability [31]: 14.8% | cell viability [32]: 23.6% | cell viability [33]: 10.6%

CCN(C)C(=O)Oc1cccc([C@H](C)N(C)C)c1
cell viability [1]: 117% | cell viability [2]: 105% | cell viability [3]: 104% | cell viability [4]: 114% | cell viability [5]: 106% | cell viability [6]: 105% | cell viability [7]: 107% | cell viability [8]: 107% | cell viability [9]: 99.5% | cell viability [10]: 96.4% | cell viability [11]: 104% | cell viability [12]: 106% | cell viability [13]: 104% | cell viability [15]: 102% | cell viability [16]: 99.7% | cell viability [17]: 102% | cell viability [18]: 113% | cell viability [19]: 101% | cell viability [20]: 95.6% | cell viability [21]: 102% | cell viability [22]: 99.2% | cell viability [23]: 103% | cell viability [24]: 102% | cell viability [25]: 99.3% | cell viability [26]: 98.7% | cell viability [27]: 103% | cell viability [28]: 104% | cell viability [29]: 104% | cell viability [30]: 98.2% | cell viability [31]: 93.4% | cell viability [32]: 94.7% | cell viability [33]: 86.7%

Cc1ccc(-c2ncn(-c3ccc(Nc4nccc(-c5cccc(N6CCOCC6)c5)n4)cc3)n2)cn1
cell viability [1]: 93.9% | cell viability [2]: 94.5% | cell viability [3]: 94.8% | cell viability [4]: 98.2% | cell viability [5]: 96.1% | cell viability [6]: 90.7% | cell viability [7]: 5.93% | cell viability [8]: 5.41% | cell viability [9]: 5.42% | cell viability [10]: 4.29% | cell viability [11]: 4.16% | cell viability [12]: 92.2% | cell viability [13]: 92.8% | cell viability [14]: 90.2% | cell viability [15]: 89.8% | cell viability [16]: 94.5% | cell viability [17]: 83.6% | cell viability [18]: 3.59% | cell viability [19]: 3.74% | cell viability [20]: 2.21% | cell viability [21]: 3.15% | cell viability [22]: 3.43% | cell viability [23]: 82.2% | cell viability [24]: 87.5% | cell viability [25]: 80.8% | cell viability [26]: 86.6% | cell viability [27]: 87.6% | cell viability [28]: 96.3% | cell viability [29]: 3.87% | cell viability [30]: 3.59% | cell viability [31]: 2.81% | cell viability [32]: 2.93% | cell viability [33]: 2.94%

O=C(CCc1ccc(O)cc1)c1c(O)cc(O)cc1O[C@@H]1O[C@H](CO)[C@@H](O)[C@H](O)[C@H]1O
cell viability [1]: 96.3% | cell viability [2]: 96.6% | cell viability [3]: 94.1% | cell viability [4]: 92.8% | cell viability [5]: 88% | cell viability [6]: 96.3% | cell viability [7]: 86.2% | cell viability [8]: 84% | cell viability [9]: 85.1% | cell viability [10]: 81.9% | cell viability [11]: 85.5% | cell viability [12]: 90.2% | cell viability [13]: 85.4% | cell viability [14]: 86.5% | cell viability [15]: 86.5% | cell viability [16]: 82.4% | cell viability [17]: 83.6% | cell viability [18]: 88.1% | cell viability [19]: 82.6% | cell viability [20]: 82.5% | cell viability [21]: 81.6% | cell viability [22]: 86.1% | cell viability [23]: 84.1% | cell viability [24]: 84.3% | cell viability [25]: 95% | cell viability [26]: 93.9% | cell viability [27]: 82.8% | cell viability [28]: 85.1% | cell viability [29]: 81.8% | cell viability [30]: 89.3% | cell viability [31]: 83.2% | cell viability [32]: 80.2% | cell viability [33]: 82.8%

Reference: the supplement of paper PMC11451515
